{"source": "patent US7718700B2", "about": "“Growth factor-binding compounds and methods of use” (Yale University, priority 2004, dated 2010)", "key": {"PDGFR": {"tested_on": "PDGFR", "assay": "125I-PDGF binding to its receptor on NIH 3T3 cells", "design": "species or system mouse", "details": "4° C., 0.5 hours, read-out: IC50 inhibition of [I-125]PDGF binding to its receptor", "experimental": "(§1) Flk-1/NIH 3T3, NIH 3T3 and EGFR/NIH 3T3 cells were incubated with ^125I-VEGF, ^125I-PDGF and ^125I-EGF (50,000 cpm/well) respectively, along with increasing concentrations of GFB204. Cells were incubated at 4° C. for 0.5 hours, then washed three times with PBS and three times with lysis buffer prior to determining ^125I counts as described under Materials and Methods. An excess of cold VEGF, PDGF, and EGF was used to obtain non-specific binding levels. FIGS. 2A-2C show specific binding (% control) for PDGFR, Flk-1, and EGFR, respectively.\n(§2) Binding of ^125I-growth factors to their receptors. The binding assay of ^125I-VEGF, ^125I-PDGF and ^125I-EGF to their respective receptors was carried out as described previously (Blaskovich, M. A. et al. Nat Biotechnol, 2000, 18:1065-70. Briefly, Flk-1/NIH 3T3 cells, NIH 3T3 cells and EGFR/NIH 3T3 cells were incubated with ^125I-VEGF, ^125I-PDGF and ^125I-EGF (50,000 cpm/well), respectively, and increasing concentrations of GFB204. Cells were incubated at 4° C. for 0.5 hours, then washed three times with PBS and three times with 25 mM Tris, pH 8.0, 1% Triton-X-100, 10% glycerol, and 1% SDS prior to determining ^125I counts on a gamma counter (Beckmann Inc.). An excess of cold growth factors were used to obtain nonspecific binding levels."}, "EGFR": {"biological_target": "T1, EGFR (Homo sapiens, UniProt P00533)", "T1 construct": "expressed in transfected cells; host or cells: NIH 3T3 (EGFR/NIH 3T3)", "T1 sequence (P00533 25-1210)": "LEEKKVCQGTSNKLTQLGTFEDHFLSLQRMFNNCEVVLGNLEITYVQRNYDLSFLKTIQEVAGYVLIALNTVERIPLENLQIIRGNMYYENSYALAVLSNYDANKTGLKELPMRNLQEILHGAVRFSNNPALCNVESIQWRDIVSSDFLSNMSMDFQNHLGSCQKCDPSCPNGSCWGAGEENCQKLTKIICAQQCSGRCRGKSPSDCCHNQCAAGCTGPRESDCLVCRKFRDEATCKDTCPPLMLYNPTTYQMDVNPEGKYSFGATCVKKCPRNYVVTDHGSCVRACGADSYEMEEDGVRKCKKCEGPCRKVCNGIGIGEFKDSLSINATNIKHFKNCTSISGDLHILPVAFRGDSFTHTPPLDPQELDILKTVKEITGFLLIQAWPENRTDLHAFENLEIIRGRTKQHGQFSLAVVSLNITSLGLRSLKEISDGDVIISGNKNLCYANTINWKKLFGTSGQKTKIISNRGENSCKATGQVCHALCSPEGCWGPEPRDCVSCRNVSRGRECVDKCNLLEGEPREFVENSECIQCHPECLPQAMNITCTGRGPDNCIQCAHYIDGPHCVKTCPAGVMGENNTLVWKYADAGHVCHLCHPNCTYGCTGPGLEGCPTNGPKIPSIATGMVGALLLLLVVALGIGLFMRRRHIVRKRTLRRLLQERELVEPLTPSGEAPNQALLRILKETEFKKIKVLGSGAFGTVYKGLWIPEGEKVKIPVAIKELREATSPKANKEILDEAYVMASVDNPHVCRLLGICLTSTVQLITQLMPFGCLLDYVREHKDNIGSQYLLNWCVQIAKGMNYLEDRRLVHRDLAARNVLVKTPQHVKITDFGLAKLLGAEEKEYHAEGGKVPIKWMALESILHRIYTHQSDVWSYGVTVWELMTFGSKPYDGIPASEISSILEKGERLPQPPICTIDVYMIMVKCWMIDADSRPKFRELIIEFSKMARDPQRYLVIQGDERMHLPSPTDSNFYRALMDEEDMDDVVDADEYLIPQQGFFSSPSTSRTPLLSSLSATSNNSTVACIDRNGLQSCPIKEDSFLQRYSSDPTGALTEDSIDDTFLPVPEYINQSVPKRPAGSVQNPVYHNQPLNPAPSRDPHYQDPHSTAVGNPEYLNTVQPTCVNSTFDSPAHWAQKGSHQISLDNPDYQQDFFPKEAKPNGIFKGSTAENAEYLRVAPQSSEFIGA", "assay": "125I-EGF binding to its receptor on EGFR/NIH 3T3 cells", "details": "concentrations as high as 100 μM", "experimental": "as §1, §2"}, "PDGF": {"biological_target": "PDGF (Homo sapiens, UniProt P01127)", "sequence (P01127 82-190 limits assumed)": "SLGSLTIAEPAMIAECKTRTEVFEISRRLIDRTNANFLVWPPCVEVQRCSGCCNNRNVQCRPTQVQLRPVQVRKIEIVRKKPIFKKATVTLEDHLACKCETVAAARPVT", "assay": "Tryptophan fluorescence titration of PDGF", "format": "binding", "details": "emission at 334 nm", "experimental": "FIGS. 2D and 2E illustrate that GFB-204 binds PDGF and VEGF as indicated by growth factor tryptophan when increased amounts of GFB204 were added to PDGF and VEGF, respectively. The fluorescence was monitored by excitation at 295 nm and 228 nm, respectively, and emission at 334 nm.\nBoth VEGF and PDGF contain tryptophans that fluoresce at […] when excited at […]."}, "[1]": {"tested_on": "bFGF-stimulated Erk1, Erk2, Akt and STAT3 phosphorylation", "assay": "bFGF-stimulated phosphorylation of Erk1/2, Akt and STAT3 in NIH 3T3 cells", "format": "cell-based, mouse", "details": "GFB204 10 μM", "experimental": "FIGS. 3A and 3B show the effect of GFB204 on growth factor stimulated Erk1, Erk2, Akt, and STAT3 phosphorylation. GFB204 inhibits VEGF and PDGF stimulation of Flk-1 tyrosine phosphorylation and Erk1/Erk2 phosphorylation (FIG. 3A). NIH 3T3 cells or Flk-1/NIH 3T3 cells were treated with increasing concentrations of GFB204 for 5 minutes prior to stimulation with PDGFBB (10 ng/ml) or VEGF (50 ng/ml), respectively, for 10 minutes. The cells were then lysed and processed for SDS-PAGE Western blotting with an antibody specific for phosphotyrosine-Flk-1 or anti-phosphotyrosine for PDGFR tyrosine phosphorylation or phospho-Erk1/2. GFB204 effects on growth factor-stimulated Erk1, Erk2, Akt and STAT3 phosphorylation (FIG. 3B). NIH 3T3, Flk-1/NIH 3T3, IGF-1R/NIH 3T3 or EGFR/NIH 3T3 cells were treated with GFB204 (10 μM) prior to stimulation with PDGF (NIH 3T3) VEGF (Flk-1/NIH 3T3), EGF (EGFR/NIH 3T3), bFGF (NIH 3T3) or IGF-1 (IGF-1R/NIH 3T3). The cells were then harvested and processed for SDS-PAGE Western blotting with antibodies specific for phospho-Erk1/2, phospho-Akt and phospho-STAT3.\nGrowth factor-mediated stimulation of phosphorylation of Erk1/2, Akt and STAT3. […]"}, "A-549 xenografts": {"tested_on": "A-549 xenografts", "assay": "CD31 IHC microvessel count in A-549 xenograft tumors", "format": "in vivo, nude mice", "details": "5 mg/Kg, tumors processed two hours after last i.p. injection", "experimental": "FIGS. 7A-7B illustrates CD31 IHC staining as described under Materials and Methods for tumors processed two hours after the last i.p. injection for a control (FIG. 7A) and GFB204 (FIG. 7B). Quantification of microvessels density (400×) was determined as described under Materials and Methods. SE, standard error. FIGS. 7A and 7B Microvessel Count; FIG. 7A=11.3±1.9; FIG. 7B=2.6±0.9.\nIHC study. On the termination day of antitumor experiments, the tumors were extracted and fixed in 10% neutral buffered formalin for 6 hours. After fixation, the tissue samples were processed into paraffin blocks. Tissue sections (4 μm thick) were obtained from the parablocks and stained with hematoxylin and eosin (H&E) using standard histological techniques. Tissue sections were also subjected to immunostaining for CD31 (BD Biosciences, San Diego, Calif.) using the avidin biotin peroxidase complex technique (Blaskovich, M. A. et al. Nat Biotechnol, 2000, 18:1065-70). Mouse monoclonal antibody was used at 1:50 dilution, following microwave antigen retrieval (four cycles of 5 minutes each on high in 0.1M citrate buffer)."}}, "note": "Where “and” joins values, the source holds several entries; their conditions need not be identical. Identical values can stand only once.", "data": [{"smiles": "CCCCOc1c2cc(C(=O)Nc3cc(C(=O)O)cc(C(=O)OCc4ccccc4)c3)cc1Cc1cc(C(=O)Nc3cc(C(=O)O)cc(C(=O)OCc4ccccc4)c3)cc(c1OCCCC)Cc1cc(C(=O)Nc3cc(C(=O)O)cc(C(=O)OCc4ccccc4)c3)cc(c1OCCCC)Cc1cc(C(=O)Nc3cc(C(=O)O)cc(C(=O)OCc4ccccc4)c3)cc(c1OCCCC)C2", "note": "[GFB204]", "values": [{"measurement": "IC50", "setting": "PDGFR", "result": "154 nM and 200 to 500 nM"}, {"measurement": "[I-125]EGF binding to its receptor", "setting": "EGFR", "result": "not affected"}, {"measurement": "binding to PDGF by tryptophan fluorescence titration", "setting": "PDGF", "result": "binds both PDGF and VEGF"}, {"measurement": "bFGF-stimulation of the phosphorylation of Erk1, Erk2, Akt and STAT3", "setting": "[1]", "result": "had little effect and not"}, {"measurement": "microvessels per field (400×), CD31 staining", "setting": "A-549 xenografts", "result": "2.6±0.9"}]}]}
